Data on five molecules can be found in patent publication US20250340837A1, “CELLS” (University of Geneva, priority 2022, published 2025).

Type in all cases: cell-based, mouse
The subject of experiment [1] is phoenix auditory neurons. Nature of the experiment: Induced Ca2+ cytosolic release (FLUO-8) in differentiated phoenix auditory neurons. The conditions noted are these: for EC50: D7 differentiated phoenix SGCs, dose response from max-min amplitude, read-out: EC50 of induced Ca2+ transients; for Induction of Ca2+ transients: phoenix auditory neurons after 7 days of differentiation. The method, then:
(A-C) Kinetics of Ca^2+ transients induced by (A) Glutamate (higher trace for the higher concentration), (B) ATP (higher trace for the higher concentration), (C) Kainate in phoenix auditory neurons after 7 days of differentiation. Phoenix auditory neurons were loaded with Ca^2+ sensitive ratiometric probe (FLUO-8) and stimulated with increasing concentrations of glutamate ([…]), ATP (0.005-10 μM) or kainate (0.02-50 μM). (D) Dose response curves were extracted from the max-min amplitude values, allowing the determination of an EC50 value (in order of highest to lowest effect: Ionomycin, ATP, Glutamate, Thapsigargin and Kainate (no effect for Kainate). (E). Ionomycin and Thapsigargin were used as positive control. Data represent the average+/−SEM of 3 independent experiments.
A total of 32,000 cells/well were differentiated to auditory neurons on a 96-well plate coated with Matrigel, as previously described (Rousset et al., 2020). Differentiated cells were loaded with FLUO-8 (Interchim), according to the manufacturer's protocol. After an incubation period of typically 45 min at 37° C. with the inducing agent or control, the induced cytosolic calcium release was assessed in a FDSS/pCELL Functional Drug Screening System (Hamamatsu). The neuronal kinetics of calcium release was followed over about 10 min following treatment, with one measure every 0.5 s.
To further explore the excitatory function of differentiated phoenix SGCs, Ca2+ mobilization was studied in response to several physiological stimuli, namely glutamate, ATP, and kainate (FIG. 4). […] Ionomycin, an ionophore facilitating the transport of divalent cations across cell membranes, and thapsigargin, inhibiting the SERCA pump and therefore the transfer of Ca^2+ toward endoplasmic reticulum, were used as positive controls (FIG. 4D). The excitatory pattern of phoenix SGCs was also compared with human fetal sphere-derived ones and mouse spiral ganglion explants using live Ca^2+ imaging. […] Therefore, at any passage and following differentiation, phoenix auditory SGCs resemble the auditory neuron physiology.
Further, the impact of BDNF and NT-3 alone or in combination on phoenix auditory neurons' glutamatergic function was assessed. Phoenix neuroprogenitors were plated on poly-ornithine and laminin coated 96 well plates and differentiated for 7 days with or without BDNF and NT-3 alone or in combination. To assess effect of neurotrophins, the auditory neuron were stimulated twice with glutamate: first with 10 μM (EC90) and 10 min later with 100 μM, eliciting a maximal glutamatergic response (FIG. 15A). Traces show the Ca2+ mobilization kinetics with 50 ng/mLNT-3+25 ng/mL BDNF (top light curve) or without neurotrophins (bottom dark curve) upon glutamate stimulation as recorded with Ca2+ sensitive ratiometric probe (FLUO-8). Arrows show the max-min amplitude of the response following the first (10 μM) or the second (100 μM) glutamate stimulation. Heatmaps showing the effect of BDNF and NT-3 alone or in combination on Ca2+ release (min-max amplitude) induced by 10 μM glutamate (FIG. 15B) and 100 μM glutamate (FIG. 15C).

Another experiment deals with C57Bl/6 ANPGs. Nature of the experiment: Neurosphere growth and self-propagation induction in low stemness ANPGs.
In another experiment the test system is stemness-induced ANs. Nature of the experiment: Glutamate-induced Ca2+ response in stemness-induced auditory neurons (Regenix). As to the method:
FIG. 21 Phenotypical characterization of stemness induced Auditory Neurons (ANs). (A) C57Bl/6 ANPG, were treated with WNT agonist (CHIR99021; 3 μM) or TGFb antagonist (dual SMAD inhibitors; LDN193189 0.5 μM, SB431542 10 μM) aiming at replicating phoenix ANPG stemness phenotype. After 38 days of induction, stemness-induced ANPGs were differentiated on Matrigel coating following removal of mitogenic factors. BDNF (10 ng/mL), NT-3 (50 ng/mL) and LIF (10 ng/mL) were added during the 7 days of differentiation. (B-E) Immunostainings in differentiated ANs were compared to stemness-induced ANPGs neurospheres at the same passage. (B-B′) B-III tubulin (TUJ, green) and Sox2 (red) stainings were respectively performed in (B) ANPGs and (B′) ANs. (C-C′) B-III tubulin (TUJ, green) and Nestin (Nes, red) stainings were respectively performed in (C) ANPGs and (C′) ANs. D-D′) B-III tubulin (TUJ, green) and S100 (red) stainings were respectively performed in (D) ANPGs and (D′) ANs. E-E′) B-III tubulin (TUJ) and KI67 stainings were respectively performed in (E) ANPGs and (E′) ANs. TUJ staining appears in green in ANPGs and red in ANs and KI67 appears in red in ANPGs and in green in ANs. […] (F-G) Excitatory potential of stemness-induced ANs was tested using live Ca^2+ imaging. Stemness-induced ANPGs were differentiated for 7 days in absence of growth factors. […]

Experiment [2] relates to phoenix auditory neurons. Nature of the experiment: Morphology of phoenix auditory neurons differentiated with neurotrophins (Imaris). The conditions noted are these: 72 h differentiation; peaking at 100 ng/mL. The method, then:
FIG. 14 Impact of BDNF and NT-3 supplementation on morphology of phoenix auditory neurons. Phoenix neuroprogenitors were differentiated for 72 h in presence of various concentrations of BDNF or NT-3 in 96-well plates. […] (A-D) The untreated control is represented by the bar in the left of each of the four graphs, BDNF treated specimens in the bars in the middle of each of the four graphs, and NT-3 treated by the bars on the right of each of the four graphs. The dashed horizontal grey line marks the median of the control group. The numbers on the x-axis denote neurotrophin concentrations in ng/ml. The horizontal lines in the boxes denote the median value and the dots the mean value. Whiskers extend from minimum to maximum. […] Exemplary images of differentiated cells after 72 h in culture and immunohistochemical staining without treatment (E) and supplementation of 100 ng/mL BDNF (F) and 100 ng/mL NT-3 (G). (E-G) Scale bar: 100 μm.
(§1) Organotypic spiral ganglion explant culture was carried out prior to in vitro phoenix sphere derived neuron assays, as shown in the workflow in FIG. 12. […] After fixation, specimens were stained with DAPI and for β-III-tubulin (TuJI antibody) to address the effect of neurotrophins on neurite outgrowth and neuron numbers, quantified with a modified Sholl analysis routine. For each explant, the neurite length index (NLI) was computed, and associated intersection counts served as approximation for neuron numbers. The lower rows show phoenix auditory neuroprogenitor sphere dissociation and induction of differentiation. To assess the outgrowth morphology, cells were seeded at 7,000 cells/well with presence of NT-3 or BDNF for 72 h. Differentiated cells were stained for β-III-tubulin, GFAP and DAPI for morphological analysis. Parameters such as the total neurite outgrowth, the number of neurons, the number of glial cells and the mean neurite length were assessed using a custom-made Imaris procedure. For a functional evaluation by means of a calcium response assay to glutamate, 30,000 cells were seeded per well and differentiated with supplementation of BDNF, NT-3 or combinations thereof. Via a fluorescent calcium binding dye, the cellular response to glutamate was quantified.
The impact of BDNF and NT-3 supplementation on morphology of phoenix auditory neurons was also assessed. Phoenix neuroprogenitors were differentiated for 72 h in presence of various concentrations of BDNF or NT-3 in 96-well plates.

For experiment [3], the system named is spiral ganglion explants (SGE). Nature of the experiment: Organotypic spiral ganglion explant culture, neurite outgrowth and intersections (modified Sholl analysis). The settings on record: P7 SGE, 96 h; for Neurite outgrowth (neurite length index, NLI): compared to spontaneous outgrowth. The method, then: FIG. 13 Effect of BDNF and NT-3 alone or in combination on organotypic spiral ganglion explant culture morphology. Spiral ganglion explants (SGE) of freshly dissected P7 old mouse pups were seeded in poly-D-lysin and laminin coated 96 well plates and incubated without (n=94) or with BDNF, NT-3 or combinations of these for 96 h. Neurite outgrowth (A-C) and intersections (D-F) were quantified with representative explant micrographs underneath (G) for the given treatments. Numbers indicate the amount of neurotrophin added in ng/ml. […] In controls, a substantial outgrowth with a mean NLI of 20828 (±5647/4442; n=94), was registered. […] (D-F) Bar graphs show the intersection quantification, representing the approximated number of neurons with outgrowth. […] (A-F) Bars represent geometric means in μm; error bars indicate ±upper and lower 95% confidence intervals for the mean. The shaded area in the bottom section of each graph represents control levels (i.e. levels for samples that were not treated with BDNF and/or NT-3). One-way ANOVA, followed by Tukey-Kramer post-hoc test. Dunn non-parametric comparison with control, *p<0.05, **p<0.01, ***p<0.001.
as §1
The effect of BDNF and NT-3 alone or in combination on organotypic spiral ganglion explant culture morphology was assessed. […] Neurite outgrowth (FIG. 13 A-C) and intersections (FIG. 13 D-F) were quantified. […]

Procedure for C57Bl/6 ANPGs: (B) Picture showing representative triplicate of ANPG spheres cultured for 1 month in a 96 well plate. Phoenix cells are used as positive control. C57Bl/6: ANPGs were cultured in DMEM:F12+N2 and B27 supplements without growth factors. +GF: DMEM:F12+N2 and B27+FGF 10 ng/mL+EGF 20 ng/mL+IGF 50 ng/mL+Heparan Sulfate 50 ng/mL. GF+DS:DMEM:F12+N2 and B27+IGF+EFG+HS+FGF+LDN193189 0.5 μM+SB431542 10 μM. GF+CHIR: DMEM:F12+N2 and B27+IGF+EFG+HS+FGF+CHIR99021 3 μM. +GF+CHIR+DS: DMEM:F12+N2 and B27+IGF+EFG+HS+FGF+LDN193189 0.5 μM+SB431542 10 μM+CHIR99021 3 μM. Phoenix+GF: phoenix ANPG cultured in standard conditions (DMEM:F12+N2 and B27+IGF+EFG+HS+FGF). (C) Graph showing the average sphere area at different time points (up to 38 days). […] (D) Following DNA staining, flow cytometry was performed to determine the percentage of cells engaged in the cell cycle (phase S/G2M; proliferating). […] (E) After reprogramming, ANPGs were differentiated on Matrigel coating following removal of mitogenic factors. […]
(B) Representative pictures of ANPG spheres 4 days following the first passage cultured in “standard” conditions (GF) or (C, left) in conditions to induce stemness (GF+LDN193189 0.5 μM+SB431542 10 μM+CHIR99021 3 μM). […] (D) At every passage, following dissociation with Accutase, ANPGs were counted with a fast read counting chamber. […]

Broadly, the EC50 is the concentration at which the effect is half-maximal. Turning to `Nc1ncnc2c1ncn2[C@@H]1O[C@H](COP(=O)(O)OP(=O)(O)OP(=O)(O)O)[C@@H](O)[C@H]1O` [ATP], in the experiment on phoenix auditory neurons [1], the concentration giving a half-maximal response (EC50) worked out at 430 nM and the “Induction of Ca2+ transients” value is reported as “Robust Ca^2+ transients”.

For the molecule `Cc1c[nH]c(-c2cnc(NCCNc3ccc(C#N)cn3)nc2-c2ccc(Cl)cc2Cl)n1` [CHIR, CHIR99021], in the experiment with C57Bl/6 ANPGs (7 days differentiation on Matrigel, BIII-tubulin and S-100 staining), the “ability of treated ANPGs to differentiate into neurons and glial cells” value is on record as “able to differentiate into neurons”. Moreover, the expansion over passages entry in the experiment on C57Bl/6 ANPGs (number of cells/passage up to passage 13) is listed as “not able to expand”.

As for `N[C@@H](CCC(=O)O)C(=O)O` [glutamate], in the experiment on phoenix auditory neurons [1], the EC50 turned out to be 1160 nM and the “Induction of Ca2+ transients” value is reported as “Robust Ca^2+ transients”. The “EC50 of glutamate-induced Ca2+ response” value in the experiment on phoenix auditory neurons [1] (Phoenix ANs, glutamate increments, 1/2 serial dilutions) was “within the μM range”. The EC90 with phoenix auditory neurons [1] (first glutamate stimulation of phoenix auditory neurons, read-out: glutamate concentration given as EC90) amounted to 10000 nM. The “Ca2+ response, live Ca2+ imaging” value with stemness-induced ANs (glutamate 100 uM, siANs differentiated for 7 days) was “robust Ca2+ response”. In addition, the “EC50 of glutamate-induced Ca2+ response” value in the experiment on stemness-induced ANs (stemness-induced ANs (Regenix), glutamate increments, 1/2 serial dilutions) was “within the μM range”.

B1: brain-derived neurotrophic factor (protein, UniProt P23560 19-247, looked up)
Neurotrophic factor BDNF …: APMKEANIRGQGGLAYPGVRTHGTLESVNGPKAGSRGLTSLADTFEHVIEELLDEDQKVRPNEENNKDADLYTSRVMLSSQVPLEPPLLFLLEEYKNYLDAANMSMRVRRHSDPARRGELSVCDSISEWVTAADKKTAVDMSGGTVTVLEKVPVSKGQLKQYFYETKCNPMGYTKEGCRGIDKRHWNSQCRTTQSYVRALTMDSKKRIGWRFIRIDTSCVCTLTIKRGR
notes: neurotrophin
Take B1: in the experiment with phoenix auditory neurons [2], the “number of glial cells (exclusively GFAP positive cells)” value is on record as “increased in general in a dose depended manner”, the “number of neurons (exclusively beta-III-tubulin positive cells)” value was “increased in general in a dose depended manner” and the total neurite outgrowth entry is “increased in general in a dose depended manner”. In addition, in experiment [3], the “Intersections (approximated number of neurons with outgrowth)” value is recorded as “rose significantly in a dose-dependent manner” and the “Neurite outgrowth (neurite length index, NLI)” value was “significantly enhanced”.

B2: neurotrophin-3 (protein, UniProt P20783 139-257, looked up)
Neurotrophin-3: YAEHKSHRGEYSVCDSESLWVTDKSSAIDIRGHQVTVLGEIKTGNSPVKQYFYETRCKEARPVKNGCRGIDDKHWNSQCKTSQTYVRALTSENNKLVGWRWIRIDTSCVCALSRKIGRT
For B2, in the experiment with phoenix auditory neurons [2], the “number of glial cells (exclusively GFAP positive cells)” value is “increased in general in a dose depended manner”, the “number of neurons (exclusively beta-III-tubulin positive cells)” value is recorded as “increased in general in a dose depended manner” and the total neurite outgrowth result is “increased in general in a dose depended manner”. In addition, in experiment [3], the “Intersections (approximated number of neurons with outgrowth)” value was “rose significantly in a dose-dependent manner” and the “Neurite outgrowth (neurite length index, NLI)” value is recorded as “significantly enhanced”.
